Experimental findings from BindingDB's records for doi:10.1021/jm050019i (University of Illinois At Chicago, 2005) are described below.

In this assay the target is T1, Dimer of Gag-Pol polyprotein [501-599,Q508K,L534I,L564I,C568A,C596A] (Human immunodeficiency virus 1, UniProt P03367, C568A/C596A/L534I/L564I/Q508K).
T1 construct: 501-599
In words: Protease Inhibition Assay. Conditions: pH 6.4; 25 °C. The protocol: The Ki values were determined using fluorogenic substrate, 2-(aminobenzoyl)-Thr-Ile-Nle-Phe(p-NO2)-Gln-ArgNH2. A standard curve relating changes in fluorescent intensity to changes in concentration of product was used to convert fluorescent changes into molar velocities. The amount of cleavage was determined by HPLC.

SMILES strings stand for the structures.

For the compound `COc1ccc(S(=O)(=O)N(CC(C)C)C[C@@H](O)[C@@H]2CCCC/C=C\COc3c(O)cccc3C(=O)N2)cc1` [(2R)-2-hydroxy-2-[(9S)-15-hydroxy-11-oxo-2,5,6,7,8,9,10,11-octahydro-1,10-benzoxazacyclotridecin-9-yl]-N-(4-methoxyphenyl)-N-(2-methylpropyl)ethane-1-sulfonamido], the affinity corresponds to a Ki of 2 nM. In other words, the single-digit nanomolar range.

In general, Ki refers to the equilibrium dissociation constant of an inhibitor or competing ligand from its target.
